Read-outs that look alike come from different tables or passages of the source.

The conditions of data set [1]: 0 min.
Procedure: (§1) Solutions containing respectively 10 percent carbonate and ten percent pineapple ketone in toluene are stirred in loosely capped vials at ambient temperature. Samples are taken periodically and the concentration of carbonate or ketone remaining determined by GLC (6'×1/8", 15% Carbowax-20M on 80/100 Chromasorb W, Helium=28 cc/min, 100°-210° at 8°/min). The experiment is repeated using ethanol as solvent.
Data set [2] in a line: physchem. Particulars: toluene.
Procedure: as §1

For `CCOC(=O)OC1=C(C)OC(C)C1=O` (stereo not drawn) [Example 1, ETHYL 2,5-DIMETHYL-3-OXO-4(2H)-FURYL CARBONATE], the “% Remaining” value (0 min) worked out at 100%. Further, the “% Remaining” value in data set [1] is 100%. Further, in data set [2], the fraction remaining (in general, what is left of the initial amount, in per cent) at 21 h stood at 100%; the amount remaining at 46 h worked out at 100%; the fraction remaining at 69 h came to 100%; the amount remaining at 149 h came to 100%. In data set [2], this compound came in with a fraction remaining at 173 h of 100%.

Consider `CC1=C(O)C(=O)C(C)O1` (stereo not drawn) [Pineapple ketone, 2,5-dimethyl-4-hydroxy-3(2H)-furanone], for which the “% Remaining” value (0 min) came to 100%; the “% Remaining” value (toluene, 15 h) was 24%; the “% Remaining” value (toluene, 41 h) came out at 18%; the “% Remaining” value (toluene, 116 h) was found to be 6%; the “% Remaining” value (toluene, 138 h) is reported as 4%; the “% Remaining” value in data set [1] is listed as 100%. This compound returned an amount remaining at 21 h in data set [2] of 100%. The same compound registered a share remaining at 48 h in data set [2] of 58%. The compound further had a share remaining at 72 h in data set [2] of 30%. This compound also had an amount remaining at 149 h in data set [2] of 8%. For the same compound, the share remaining at 172 h in data set [2] was determined as 9%.

Source of the values: US4937229A, “Pineapple ketone carbonate derivatives” (priority 1989, dated 1990).
